# From patent US20190388377A1, “COMPOSITIONS AND METHODS FOR THE TREATMENT OF LIVER DISEASES AND DISORDERS” (AXCELLA HEALTH INC., priority 2018, published 2019)
# How the values were obtained:
# Human CCL2 (MCP-1) = assay: MCP1 secretion by ELISA after 24 h, PHH model for NASH, Example 2; assay type: cell-based; details: FFA+TNFα
# Protocol: (§1) PHH from two healthy human donors (Lonza, TRL) were seeded on day 0 at density of 6e04 cells in 96 well optical microplates (Thermofisher) in hepatocyte plating media (William's E medium, WEM) (Gibco) supplemented with 10% heat-inactivated FBS (Atlanta Bio), 2 mM Glutamax (Gibco), and 0.2% Primocin (InVivoGen) and incubated for 6 hours at 37° C., 5% CO2. After 6 hours, cells were washed twice and incubated overnight at 37° C., 5% CO2 with Hepatocytes defined medium (Corning) supplemented with 2 mM Glutamax (Gibco), and 1× Penicillin/Streptomycin. On day 1, cells were washed twice and incubated for 24 h in the hepatocyte culture media in the same conditions described above.
# (§2) On day 2, cells were washed twice with DPBS 1× (Gibco) to remove excess amino acids and maintained in pretreatment media (1×HMDB, a defined custom amino acid concentration based on the mean physiological concentrations in blood, in WEM±supplemental amino acids): • a. Amino acid-free WEM (US Biologicals) supplemented with 11 mM Glucose (Sigma), 0.272 mM Sodium Pyruvate (Sigma), 1× P/S (Gibco) and containing 1×HMDB with no supplemental amino acids; or • b. The same media described above 1×HMDB WEM with supplemental amino acid and amino acid combination treatments at various concentrations. Cells were maintained in the defined media (a. & b.) for 24 hours at 37° C., 5% CO2. The HMDB values are published in the Human Metabolome Database (Wishart D S, Tzur D, Knox C, et al., HMDB: the Human Metabolome Database. Nucleic Acids Res. 2007 January; 35 (Database issue):D521-6. 17202168; which is hereby incorporated by reference in its entirety). Co-Treatment with Free Fatty Acids and Amino Acids Combination
# (§3) After 24 h pre-treatment, cells maintained in the pretreatment media±supplemental amino acids (section (a. & b.) described above) were exposed to free fatty acids (FFA) at 250 uM with a ratio of 2:1 (Oleate:Palmitate) supplemented with TNF-α (Thermofisher) at 1 ng/ml. Cells were incubated with the FFAs mixture (FFAs+TNF-α)±supplemental amino acids treatments for 24 hours at 37° C., 5% CO2. After 24 hours incubation, media was removed for cytokine analysis and replaced by fresh media containing the same conditions described above (FFAs mixture±supplemental amino acids treatments). Cells were incubated for an additional 48 hours for a total of 72 hours of FFA and TNF-α stimulation. After 72 hours of incubation, media was removed for albumin and urea analysis and the cells were fixed for nuclei and lipid staining.
# Human CCL2 (MCP-1) was measured by ELISA (Human […] DuoSet ELISA, R&D Systems) at 1/20 dilution in 1× Reagent Diluent (Reagent Ancillary Kit 2, R&D Systems). MCP1 data in primary human hepatocytes treated with FFA+TNFα+supplemental amino acids was normalized to 1×HMDB WEM+FFA+TNFα baseline. Data is reported as median fold change from control, statistical analysis was done using t-Test.
# Urea = Urea production after 72 h by urea nitrogen (BUN) colorimetric assay, PHH model, Example 2; assay type: cell-based, human; details: FFA+TNFα
# Protocol: as §1, §2, §3
# Urea was measured as an indicator of hepatocytes functionality by urea nitrogen direct assay (StanBio). Cell supernatant was added to the BUN color reagent and BUN acid reagent at 1(color):2(acid) ratio. Incubate the cell supernatant with BUN reagent for 12 min at 100° C. then for 5 min at 4° C. Read absorbance at 520 nm. Data was normalized to the control. Data is reported as median fold change from control, statistical analysis was done using t-Test.
# [1] = system: primary human hepatocytes; assay: Intracellular triglyceride level after 72 h, colorimetric assay, Example 3; assay type: cell-based
# Protocol: On day 2, cells were washed twice with DPBS 1× (Gibco) and maintained in: • a. Amino acid-free WEM (US Biologicals) supplemented with 11 mM Glucose (Sigma), 0.272 mM Sodium Pyruvate (Sigma), 1× P/S (Gibco) and containing a defined custom amino acid concentration based on the mean physiological concentrations in blood (1× HMDB WEM (−) supplemental amino acids); or • b. The same media described above 1×HMDB WEM (+) supplemental amino acids treatment dose at a 30× of HMDB amino acid concentration. Cells were maintained in the defined amino acids media (a. & b.) for 24 hours at 37° C., 5% CO2. Co-Treatment with Free Fatty Acids and Various Amino Acids Supplemental Treatments
# After 24 h pre-treatment, cells maintained in the same media (a. & b.) described above 1×HMDB±supplemental amino acids were now exposed to free fatty acids (FFA) at 250 uM with a ratio of 2:1 (Oleate:Palmitate) supplemented with TNF-α (Thermofisher) at 1 ng/ml or vehicle. Cells with the FFAs+TNFα mixture±amino acids treatments were incubated for 72 hours at 37° C., 5% CO2 with a media change after the first 24 hours.
# After 72 hours, cells were washed once with cold PBS 1× (Gibco), scrapped off and collected into 75 ul of standard diluent (Cayman). Collected cells were vortexed for 1 min at a 2500 rpm speed followed by two times sonication (Elmasonic sonicator) for 1 min each. Supernatants were collected for triglyceride analysis after centrifugation at 1000 rpm for 10 min at 4° C. Intracellular triglyceride level was assessed using triglyceride colorimetric assay kit (Cayman) and following manufacturer's recommendations. Data was normalized to the total amount of protein using Bicinchoninic Acid Protein Assay Kit (Sigma). Data is reported as median fold change from FFAs+TNFα condition, statistical analysis was done using t-Test.
# TNFa = TNFa secretion by ELISA, LPS-treated primary human M1 macrophages, Example 5; assay type: cell-based
# Protocol: Primary human PMBC derived macrophages were seeded on day 0 at 3.0E4 cells per well in 96-well microplates (ThermoFisher) in Dulbecco's Modified Eagle Medium (DMEM) (Gibco) supplemented with penicillin-streptomycin (Hyclone) and 10% heat inactivated fetal bovine serum (HI-FBS) (Atlanta Bio) and incubated overnight at 37° C., 5% CO2. On day 1, cells were washed once with 150 uL per well DPBS (Gibco) and treated with 75 uL of: • a. Amino acid free DMEM (US Biologicals) containing a defined custom amino acid concentration based on the mean physiological concentrations in blood based on values published in the Human Metabolome Database (HMDB), with 6 mM glucose, 1 mM sodium pyruvate, 10 mM HEPES, 0.2% primocin (InVivoGen); or • b. The same media described above with supplemental amino acid and amino acid combination treatments at various concentrations. […]
# On day 3, the supernatant was collected and immediately frozen in −80° C. freezer. Cells were washed once with 150 uL DPBS and viability was assessed using the WST-8 Cell Proliferation Cytotoxicity Assay (Dojindo). […] Protein levels in supernatant samples were analyzed by ELISA for IL-6 and TNFa using commercially available kits (R&D Systems) according to manufacturer-supplied protocols.
structure (smiles),measurement,setting,value
"CC(=O)N[C@@H](CS)C(=O)O [Nac, N-acetylcysteine]",MCP1 secretion (in words),Human CCL2 (MCP-1); hepatocyte donor 1,reduced MCP1 secretion
same,MCP1 secretion (in words),Human CCL2 (MCP-1); hepatocyte donor 2,reduced MCP1 secretion
same,urea production (in words),Urea; hepatocyte donor 1,No changes in urea production
same,urea production (in words),Urea; hepatocyte donor 2,slightly induce urea production
same,"Triglyceride Level relative to the baseline FFA + TNF, Median","[1]; FFA + TNF, 72 h, two donors, AA Conc 1X, Nac/Car 7.5 mM",−1.172
same,triglyceride level (in words),"[1]; FFAs+TNFα, two healthy donors",reduces triglyceride level but the effect was less pronounced than the combinations described previously
same,LPS-stimulated TNFa secretion (in words),TNFa,decreased LPS-stimulated IL-6 and TNFa secretion
